Results from ChEMBL document CHEMBL1152560, “Substituted 2-arylbenzothiazoles as kinase inhibitors: hit-to-lead optimization” (Bioorg Med Chem, 2009).

Legend:
[1] = biological target: Tyrosine-protein kinase Fyn (Homo sapiens) (UniProt P06241); assay: Residual activity of FYN at 1 uM by microplate scintillation counting
[2] = biological target: T1, Inhibitor of nuclear factor kappa-B kinase subunit beta (Homo sapiens) (UniProt O14920); assay: Residual activity of IKK-beta at 0.1 uM by microplate scintillation counting
T1 sequence (whole entry): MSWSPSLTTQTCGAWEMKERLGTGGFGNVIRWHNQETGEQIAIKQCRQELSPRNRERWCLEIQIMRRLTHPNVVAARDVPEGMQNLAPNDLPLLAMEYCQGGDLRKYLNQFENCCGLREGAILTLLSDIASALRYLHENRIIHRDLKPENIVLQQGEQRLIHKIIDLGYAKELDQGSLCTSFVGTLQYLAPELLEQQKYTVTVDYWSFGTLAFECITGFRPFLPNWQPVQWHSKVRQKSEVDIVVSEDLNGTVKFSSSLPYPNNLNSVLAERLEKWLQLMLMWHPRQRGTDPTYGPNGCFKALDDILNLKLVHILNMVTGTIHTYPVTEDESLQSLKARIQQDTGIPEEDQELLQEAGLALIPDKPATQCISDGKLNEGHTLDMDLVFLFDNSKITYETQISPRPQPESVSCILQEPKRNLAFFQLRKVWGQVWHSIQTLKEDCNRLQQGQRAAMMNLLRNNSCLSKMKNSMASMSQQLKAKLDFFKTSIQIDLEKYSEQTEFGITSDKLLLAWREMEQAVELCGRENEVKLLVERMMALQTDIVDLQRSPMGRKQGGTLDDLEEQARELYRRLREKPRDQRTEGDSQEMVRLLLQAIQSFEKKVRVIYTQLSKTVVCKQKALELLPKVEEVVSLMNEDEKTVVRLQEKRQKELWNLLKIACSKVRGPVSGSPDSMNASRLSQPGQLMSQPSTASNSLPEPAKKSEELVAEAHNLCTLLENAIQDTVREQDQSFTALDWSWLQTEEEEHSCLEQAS

[3] = biological target: T2, Serine/threonine-protein kinase D3 (Homo sapiens) (UniProt O94806); assay: Residual activity of PKCnu at 1 uM by microplate scintillation counting
T2 sequence (whole entry): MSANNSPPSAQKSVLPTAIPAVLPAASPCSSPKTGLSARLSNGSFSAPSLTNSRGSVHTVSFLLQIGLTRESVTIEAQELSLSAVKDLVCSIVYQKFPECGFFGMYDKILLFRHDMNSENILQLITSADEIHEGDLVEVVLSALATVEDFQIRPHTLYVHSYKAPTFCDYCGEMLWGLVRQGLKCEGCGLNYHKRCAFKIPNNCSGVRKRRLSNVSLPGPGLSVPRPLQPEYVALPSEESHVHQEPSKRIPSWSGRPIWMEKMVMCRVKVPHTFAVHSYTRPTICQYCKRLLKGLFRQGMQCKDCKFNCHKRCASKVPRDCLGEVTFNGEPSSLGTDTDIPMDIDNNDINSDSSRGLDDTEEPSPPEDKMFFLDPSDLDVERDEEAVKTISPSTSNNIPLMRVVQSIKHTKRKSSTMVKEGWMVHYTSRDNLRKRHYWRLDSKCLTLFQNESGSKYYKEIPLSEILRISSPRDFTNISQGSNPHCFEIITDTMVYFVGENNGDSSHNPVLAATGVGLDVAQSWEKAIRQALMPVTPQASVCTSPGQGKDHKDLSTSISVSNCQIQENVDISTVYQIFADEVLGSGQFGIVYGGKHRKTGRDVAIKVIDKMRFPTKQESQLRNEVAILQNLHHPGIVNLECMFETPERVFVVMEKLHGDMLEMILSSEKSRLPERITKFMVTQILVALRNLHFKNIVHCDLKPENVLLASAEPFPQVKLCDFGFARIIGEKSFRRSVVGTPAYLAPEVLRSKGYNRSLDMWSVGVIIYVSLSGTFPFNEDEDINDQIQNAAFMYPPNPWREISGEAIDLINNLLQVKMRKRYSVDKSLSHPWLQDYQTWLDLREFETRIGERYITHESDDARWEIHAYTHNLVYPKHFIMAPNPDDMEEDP

[4] = biological target: Mast/stem cell growth factor receptor Kit (Homo sapiens) (UniProt P10721); assay: Residual activity of wild type KIT at 1 uM by microplate scintillation counting
[5] = biological target: Serine/threonine-protein kinase PAK 1 (Homo sapiens) (UniProt Q13153); assay: Residual activity of PAK1 at 1 uM by microplate scintillation counting
[6] = biological target: Non-receptor tyrosine-protein kinase TYK2 (Homo sapiens) (UniProt P29597); assay: Residual activity of TYK2 at 1 uM by microplate scintillation counting
Non-receptor tyrosine-protein kinase TYK2 (Homo sapiens), sequence (P29597 whole entry): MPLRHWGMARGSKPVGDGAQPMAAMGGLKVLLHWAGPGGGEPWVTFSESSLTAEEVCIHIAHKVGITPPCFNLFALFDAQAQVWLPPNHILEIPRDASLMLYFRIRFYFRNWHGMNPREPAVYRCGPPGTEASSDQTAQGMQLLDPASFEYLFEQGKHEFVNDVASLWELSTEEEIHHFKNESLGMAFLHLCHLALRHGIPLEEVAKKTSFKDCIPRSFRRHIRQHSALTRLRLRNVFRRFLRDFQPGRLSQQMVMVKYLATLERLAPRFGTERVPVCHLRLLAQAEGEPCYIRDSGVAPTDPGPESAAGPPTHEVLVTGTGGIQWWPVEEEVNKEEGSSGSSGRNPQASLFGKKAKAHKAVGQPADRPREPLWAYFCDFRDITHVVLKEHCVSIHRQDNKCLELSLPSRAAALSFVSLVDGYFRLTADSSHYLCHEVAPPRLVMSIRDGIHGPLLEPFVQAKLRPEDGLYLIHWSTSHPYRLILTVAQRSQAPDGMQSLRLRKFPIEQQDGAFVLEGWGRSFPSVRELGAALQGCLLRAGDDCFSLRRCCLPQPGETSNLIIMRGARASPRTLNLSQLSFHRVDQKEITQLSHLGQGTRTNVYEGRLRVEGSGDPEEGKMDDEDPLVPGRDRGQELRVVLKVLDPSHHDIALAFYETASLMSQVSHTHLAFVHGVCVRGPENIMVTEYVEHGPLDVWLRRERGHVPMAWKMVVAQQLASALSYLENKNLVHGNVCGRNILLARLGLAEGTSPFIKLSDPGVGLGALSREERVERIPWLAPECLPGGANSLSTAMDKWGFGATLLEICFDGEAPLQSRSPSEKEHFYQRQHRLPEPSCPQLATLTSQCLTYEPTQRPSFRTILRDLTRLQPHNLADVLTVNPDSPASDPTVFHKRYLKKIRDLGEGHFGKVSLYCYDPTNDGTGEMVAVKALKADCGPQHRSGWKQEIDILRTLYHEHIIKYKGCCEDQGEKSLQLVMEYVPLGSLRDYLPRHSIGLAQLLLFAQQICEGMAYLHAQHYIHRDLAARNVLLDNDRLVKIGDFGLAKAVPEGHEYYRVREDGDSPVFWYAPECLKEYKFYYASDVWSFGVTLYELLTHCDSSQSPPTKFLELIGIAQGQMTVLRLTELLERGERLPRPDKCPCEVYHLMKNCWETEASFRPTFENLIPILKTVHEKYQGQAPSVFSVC

[7] = biological target: Vascular endothelial growth factor receptor 3 (Homo sapiens, UniProt P35916); assay: Residual activity of VEGFR3 at 1 uM by microplate scintillation counting
[8] = biological target: Calcium/calmodulin-dependent protein kinase type 1D (Homo sapiens) (UniProt Q8IU85); assay: Residual activity of CAMK1D at 10 uM by microplate scintillation counting
[9] = biological target: Serine/threonine-protein kinase 24 (Homo sapiens) (UniProt Q9Y6E0); assay: Residual activity of MST3 at 10 uM by microplate scintillation counting
[10] = biological target: Calcium/calmodulin-dependent protein kinase type 1D (Homo sapiens) (UniProt Q8IU85); assay: Residual activity of CAMK1D at 1 uM by microplate scintillation counting
[11] = biological target: RAC-gamma serine/threonine-protein kinase (Homo sapiens) (UniProt Q9Y243); assay: Residual activity of AKT3 at 0.1 uM by microplate scintillation counting
[12] = biological target: Calcium/calmodulin-dependent protein kinase type II subunit alpha (Homo sapiens) (UniProt Q9UQM7); assay: Residual activity of CAMK2A at 0.1 uM by microplate scintillation counting
[13] = biological target: Casein kinase I isoform epsilon (Homo sapiens) (UniProt P49674); assay: Residual activity of CK1epsilon at 0.1 uM by microplate scintillation counting
[14] = biological target: Rho-associated protein kinase 2 (Homo sapiens) (UniProt O75116); assay: Residual activity of ROCK2 at 10 uM by microplate scintillation counting
Rho-associated protein kinase 2 (Homo sapiens), sequence (O75116 whole entry, looked up): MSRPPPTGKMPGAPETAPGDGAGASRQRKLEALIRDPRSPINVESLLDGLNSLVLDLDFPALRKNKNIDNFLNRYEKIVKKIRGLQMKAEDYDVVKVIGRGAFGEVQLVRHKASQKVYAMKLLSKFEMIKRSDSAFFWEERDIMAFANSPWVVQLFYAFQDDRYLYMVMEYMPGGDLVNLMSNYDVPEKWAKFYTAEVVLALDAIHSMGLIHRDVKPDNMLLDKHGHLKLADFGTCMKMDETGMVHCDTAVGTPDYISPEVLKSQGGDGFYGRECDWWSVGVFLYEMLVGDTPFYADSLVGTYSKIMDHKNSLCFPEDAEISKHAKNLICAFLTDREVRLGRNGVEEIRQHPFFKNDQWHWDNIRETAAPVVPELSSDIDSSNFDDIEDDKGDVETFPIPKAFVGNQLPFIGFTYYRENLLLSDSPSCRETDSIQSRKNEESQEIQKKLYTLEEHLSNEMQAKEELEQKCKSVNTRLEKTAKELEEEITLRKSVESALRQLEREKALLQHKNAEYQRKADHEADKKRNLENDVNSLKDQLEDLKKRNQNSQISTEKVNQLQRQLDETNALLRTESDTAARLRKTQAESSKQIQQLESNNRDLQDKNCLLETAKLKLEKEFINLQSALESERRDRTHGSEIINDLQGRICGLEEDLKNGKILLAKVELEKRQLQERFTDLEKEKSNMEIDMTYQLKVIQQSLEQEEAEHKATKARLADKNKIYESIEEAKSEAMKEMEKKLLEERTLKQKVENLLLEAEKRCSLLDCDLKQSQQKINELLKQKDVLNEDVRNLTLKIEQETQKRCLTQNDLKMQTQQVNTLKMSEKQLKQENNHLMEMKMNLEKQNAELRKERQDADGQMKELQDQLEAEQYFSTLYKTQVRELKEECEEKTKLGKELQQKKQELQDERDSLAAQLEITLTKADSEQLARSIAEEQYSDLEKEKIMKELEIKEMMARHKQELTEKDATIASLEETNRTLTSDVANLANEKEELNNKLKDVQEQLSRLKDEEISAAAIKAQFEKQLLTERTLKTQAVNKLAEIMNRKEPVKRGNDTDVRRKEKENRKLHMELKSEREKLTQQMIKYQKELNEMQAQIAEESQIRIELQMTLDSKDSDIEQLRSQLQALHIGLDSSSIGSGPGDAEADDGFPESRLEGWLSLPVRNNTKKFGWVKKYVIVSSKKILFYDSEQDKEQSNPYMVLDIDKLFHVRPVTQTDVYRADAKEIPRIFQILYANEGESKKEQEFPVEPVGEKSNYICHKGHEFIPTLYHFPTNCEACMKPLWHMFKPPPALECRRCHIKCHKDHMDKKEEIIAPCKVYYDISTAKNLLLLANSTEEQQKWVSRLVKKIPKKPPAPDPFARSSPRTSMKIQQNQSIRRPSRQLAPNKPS

[15] = biological target: Ribosomal protein S6 kinase alpha-4 (Homo sapiens) (UniProt O75676); assay: Residual activity of RPS6KA4 at 10 uM by microplate scintillation counting
Ribosomal protein S6 kinase alpha-4 (Homo sapiens), sequence (O75676 whole entry, looked up): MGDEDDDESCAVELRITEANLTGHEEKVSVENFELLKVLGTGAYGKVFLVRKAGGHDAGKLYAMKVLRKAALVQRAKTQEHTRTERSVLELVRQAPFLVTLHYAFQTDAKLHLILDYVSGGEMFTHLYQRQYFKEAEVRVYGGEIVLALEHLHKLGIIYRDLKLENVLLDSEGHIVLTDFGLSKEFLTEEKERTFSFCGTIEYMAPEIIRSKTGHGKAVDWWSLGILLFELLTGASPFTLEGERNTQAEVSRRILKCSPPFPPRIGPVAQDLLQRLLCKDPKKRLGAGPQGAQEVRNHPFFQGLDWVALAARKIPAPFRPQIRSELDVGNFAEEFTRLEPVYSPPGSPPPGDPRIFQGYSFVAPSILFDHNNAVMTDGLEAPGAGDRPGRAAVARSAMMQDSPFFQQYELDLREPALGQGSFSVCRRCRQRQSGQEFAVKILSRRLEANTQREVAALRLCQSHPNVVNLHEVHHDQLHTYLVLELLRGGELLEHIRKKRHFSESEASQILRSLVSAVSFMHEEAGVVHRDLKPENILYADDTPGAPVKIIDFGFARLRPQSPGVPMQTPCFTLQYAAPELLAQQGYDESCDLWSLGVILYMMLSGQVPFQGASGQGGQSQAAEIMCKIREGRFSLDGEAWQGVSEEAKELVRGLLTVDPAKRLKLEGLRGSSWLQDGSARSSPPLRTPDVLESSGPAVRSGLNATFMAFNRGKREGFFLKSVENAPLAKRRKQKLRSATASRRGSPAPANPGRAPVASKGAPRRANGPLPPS

[16] = biological target: Serine/threonine-protein kinase N1 (Homo sapiens) (UniProt Q16512); assay: Residual activity of PRK1 at 0.1 uM by microplate scintillation counting
Serine/threonine-protein kinase N1 (Homo sapiens), sequence (Q16512 2-942 limits assumed): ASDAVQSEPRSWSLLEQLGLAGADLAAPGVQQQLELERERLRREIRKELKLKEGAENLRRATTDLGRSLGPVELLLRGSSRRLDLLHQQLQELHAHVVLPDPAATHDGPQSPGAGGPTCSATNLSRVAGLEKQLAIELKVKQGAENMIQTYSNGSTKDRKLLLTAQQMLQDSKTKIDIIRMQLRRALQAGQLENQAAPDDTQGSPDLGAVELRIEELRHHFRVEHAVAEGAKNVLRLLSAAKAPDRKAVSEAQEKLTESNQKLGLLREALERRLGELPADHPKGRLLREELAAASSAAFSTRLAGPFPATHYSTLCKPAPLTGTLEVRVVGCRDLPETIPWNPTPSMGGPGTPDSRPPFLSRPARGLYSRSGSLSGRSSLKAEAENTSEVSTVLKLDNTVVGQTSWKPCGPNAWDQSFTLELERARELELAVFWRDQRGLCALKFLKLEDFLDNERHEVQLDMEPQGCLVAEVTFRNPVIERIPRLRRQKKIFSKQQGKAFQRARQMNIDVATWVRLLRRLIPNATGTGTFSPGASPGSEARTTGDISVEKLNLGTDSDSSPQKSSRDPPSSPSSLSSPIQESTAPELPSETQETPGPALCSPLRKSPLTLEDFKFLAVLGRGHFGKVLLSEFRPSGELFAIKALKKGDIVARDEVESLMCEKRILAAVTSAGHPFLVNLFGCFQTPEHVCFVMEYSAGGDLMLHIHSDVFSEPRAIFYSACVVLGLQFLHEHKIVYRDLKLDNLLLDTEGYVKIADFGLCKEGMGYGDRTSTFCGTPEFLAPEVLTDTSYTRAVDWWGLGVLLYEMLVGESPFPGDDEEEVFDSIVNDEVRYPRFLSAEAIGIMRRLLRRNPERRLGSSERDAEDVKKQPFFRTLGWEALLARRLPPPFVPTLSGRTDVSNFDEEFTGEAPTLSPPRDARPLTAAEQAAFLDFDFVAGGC

[17] = biological target: Ribosomal protein S6 kinase beta-2 (Homo sapiens) (UniProt Q9UBS0); assay: Residual activity of S6Kbeta at 0.1 uM by microplate scintillation counting
Ribosomal protein S6 kinase beta-2 (Homo sapiens), sequence (Q9UBS0 whole entry): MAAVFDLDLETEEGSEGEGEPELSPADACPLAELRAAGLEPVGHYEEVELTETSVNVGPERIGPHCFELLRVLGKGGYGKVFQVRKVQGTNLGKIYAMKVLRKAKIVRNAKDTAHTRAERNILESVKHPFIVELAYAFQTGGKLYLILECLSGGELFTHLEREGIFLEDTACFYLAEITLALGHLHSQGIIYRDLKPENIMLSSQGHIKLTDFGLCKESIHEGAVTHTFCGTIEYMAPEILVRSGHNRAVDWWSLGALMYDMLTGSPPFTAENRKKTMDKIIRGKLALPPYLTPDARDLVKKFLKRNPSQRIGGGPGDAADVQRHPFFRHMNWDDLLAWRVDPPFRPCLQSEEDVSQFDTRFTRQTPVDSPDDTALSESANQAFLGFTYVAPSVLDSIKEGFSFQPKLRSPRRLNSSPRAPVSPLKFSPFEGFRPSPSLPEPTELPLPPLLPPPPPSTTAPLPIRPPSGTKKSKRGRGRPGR

residual activity [1] [%]	residual activity [2] [%]	residual activity [3] [%]	residual activity [4] [%]	residual activity [5] [%]	residual activity [6] [%]	residual activity [7] [%]	residual activity [8] [%]	residual activity [9] [%]	residual activity [10] [%]	residual activity [11] [%]	residual activity [12] [%]	residual activity [13] [%]	residual activity [14] [%]	residual activity [15] [%]	residual activity [16] [%]	residual activity [17] [%]	Compound
106	91	87	129	101	90	32	100	165	92	100	85	89	84	162	96	47	COc1cc2c(Oc3ccc(-c4nc5ccccc5s4)cc3)ncnc2cc1OCCCN1CCCC1
106	85	88	128	91	92	30	64	229	91	107	91	79	47	142	94	55	COc1cc2c(Oc3ccc(-c4nc5ccccc5s4)cc3F)ncnc2cc1OCCCN1CCN(C)CC1
105	96	83	124	104	93	34	82	231	87	96	80	80	54	135	99	42	COc1cc2c(Oc3ccc(-c4nc5ccccc5s4)cc3)ncnc2cc1OCCCN1CCN(C)CC1
